# Legend:
# SmBRD3(1,2) [1] = molecular target: SmBRD3(1,2) (Schistosoma mansoni, UniProt A0A5K4ESD7); test: biochemical; format: binding; details: for Kd: ITC
# SmBRD3(2) [2] = molecular target: T1, SmBRD3(2) (Schistosoma mansoni, UniProt A0A5K4ESD7); test: biochemical; format: binding
# SmBRD3(2) [3] = molecular target: T1, SmBRD3(2); test: Differential scanning fluorimetry (thermal shift), SmBRD3(2); format: binding; details: DSF; 50 μM compound
# Experimental: Reported ΔTm values are the mean of two replicates.
# Differential scanning fluorimetry assay
# The differential scanning fluorimetry (DSF) or thermal stability assays were carried out following the protocol described by Niesen et al. and data were analysed as described previously.8 Thermal melting experiments were carried out using the Mx3005p real-time PCR machine (Agilent) and employing a protein concentration of 5 μM for the schistosomal bromodomains [SmBRD3(2), […]
# the DMSO content was 0.5% (v/v). Buffer conditions were 50 mM HEPES buffer, pH 7.5, 500 mM NaCl and a 1:500 dilution of SYPRO® Orange (Invitrogen, CA) was used. The 96-well PCR plates were sealed and centrifuged for 2 min at 1000 rpm at 25 °C before measurement. The temperature was raised with a step of 1 °C per 30 s from 25 °C to 85 °C, and fluorescence readings were taken at each interval. […]
# Isothermal titration calorimetry experiments were performed on a MicroCal PEAQ-ITC Automated or Manual (Malvern) and analysed with the MicroCal PEAQ-ITC Analysis software (Malvern 1.1.0.1262) using a single binding site model. […]
# Male adult schistosomes were seeded into 24-well tissue culture plates (5 worms/well), dosed with compounds (20 µM in 0.2% DMSO v/v) and incubated for 24 h at 37 °C in 5% CO2. […] When ready for processing, worms were removed from the −80 °C and subject to 3 rounds of repeated snap freeze:thawing. […]
# SmBRD3(1,2) [4] = test: Differential scanning fluorimetry (thermal shift), SmBRD3(1,2); details: DSF; 50 μM compound
# Experimental: difference between the transition midpoints of sample and reference wells containing protein without inhibitor in the same plate. Reported ΔTm values are the mean of two replicates.
# Isothermal titration calorimetry experiments were performed on a MicroCal PEAQ-ITC Automated or Manual (Malvern) and analysed with the MicroCal PEAQ-ITC Analysis software (Malvern 1.1.0.1262) using a single binding site model. For each experiment, the first data point was removed from the analysis. The proteins were dialysed at 4 °C overnight in a Slide-A-LyzerR MINI Dialysis Device (2000 MWCO; Thermo Scientific Life Technologies) into 50 mM HEPES, 150 mM NaCl containing 0.2% DMSO; pH 7.4. Proteins were centrifuged to remove aggregates (3 min, 3000 rpm, 25 °C).
# Compounds were dissolved as a DMSO stock solution and diluted to the required concentration using dialysis buffer (DMSO free) and to a final DMSO concentration of 0.2% (unless otherwise specified). The cell was stirred at 750 rpm, reference power set to 5 μcal/s and temperature held at 25 °C. After an initial delay of 60 s, 19 x 2 μL injections (first injection 0.4 μL) were performed with a spacing of 180 s. […]
# T1 sequence (A0A5K4ESD7 entry or part of it): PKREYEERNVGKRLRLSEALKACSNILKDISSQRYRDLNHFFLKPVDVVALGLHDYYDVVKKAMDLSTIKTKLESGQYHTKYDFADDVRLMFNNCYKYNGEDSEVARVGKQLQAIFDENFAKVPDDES
# Chain of SmBRD3(1,2) (Schistosoma mansoni, UniProt A0A5K4ESD7) (A0A5K4ESD7 entry or part of it): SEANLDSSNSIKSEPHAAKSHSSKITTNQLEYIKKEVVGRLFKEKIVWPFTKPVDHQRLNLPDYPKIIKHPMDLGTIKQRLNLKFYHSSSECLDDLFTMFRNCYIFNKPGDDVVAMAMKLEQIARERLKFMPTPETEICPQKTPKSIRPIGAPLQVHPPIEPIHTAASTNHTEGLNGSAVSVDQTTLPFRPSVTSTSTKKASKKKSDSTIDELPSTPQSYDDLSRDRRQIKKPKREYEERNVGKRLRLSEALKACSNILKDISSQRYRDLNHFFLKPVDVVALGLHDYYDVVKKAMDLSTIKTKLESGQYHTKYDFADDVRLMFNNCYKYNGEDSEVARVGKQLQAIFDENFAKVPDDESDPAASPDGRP
smiles,measurement,setting,value
"CC(=O)N1c2ccc(-c3ccc(C(=O)O)cc3)cc2[C@H](Nc2ccc(Cl)cc2)C[C@@H]1C [I-BET726 (8), I-BET726, reference compound]","N number, binding to SmBRD3(1,2)","SmBRD3(1,2) [1]; ITC stoichiometry, n=1 ± error of curve fit",1.66 ± 6.7e-2
same,Kd,"SmBRD3(1,2) [1]; SmBRD3(1,2) Kd, n = 1 ± error of the curve fit",1.52 ± 0.52 µM
same,Kd,"SmBRD3(1,2) [1]; SmBRD3(1,2) pKd",1.58 µM
same,"N number, binding to SmBRD3(2), Repeat 1","SmBRD3(2) [2]; ITC stoichiometry, Repeat 1",1.12 ± 4.2e-2
same,"N number, binding to SmBRD3(2), Mean","SmBRD3(2) [2]; ITC stoichiometry, mean of repeats",1.12 ± 4.2e-2
same,Kd,"SmBRD3(2) [2]; SmBRD3(2) Kd, ITC, single value ± error of the curve fit or mean of 2-3 repeats ± s.e.m.",1.85 ± 0.361 µM
same,Kd,"SmBRD3(2) [2]; SmBRD3(2) Kd, Repeat 1, ITC, single run ± error of curve fit, Repeat 1",1.85 ± 0.361 µM
same,Kd,"SmBRD3(2) [2]; SmBRD3(2) pKd, ITC",2 µM
same,Thermal stabilisation (ΔTm) of SmBRD3(2),SmBRD3(2) [3],"stabilize both SmBRD3(1,2) and SmBRD3(2)"
same,"Thermal stabilisation (ΔTm) of SmBRD3(1,2)","SmBRD3(1,2) [4]","stabilize both SmBRD3(1,2) and SmBRD3(2)"

# From paper PMC10726355, “Small Molecule Ligands of the BET-like Bromodomain, SmBRD3, Affect Schistosoma mansoni Survival, Oviposition, and Development” (Journal of Medicinal Chemistry, 2023)
